The source made the active and inactive calls.
What was measured:
[1] = OVCAR-3 cell viability loss – plate reader, dry powder samples, PAX8 inhibitor project, dose response (AID 743044); format: functional, cell-based
Paired box protein Pax-8 = Paired box protein Pax-8 (Homo sapiens, UniProt Q06710); test: PAX8 transcriptional activity inhibition in RMG-I – RMG-I cells, luciferase, cherry-pick, dose response (AID 687027); format: functional, cell-based;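 note: luciferase reporter driven by Pax8 target thyroperoxidase promoter measured by SteadyGlo luminescence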
[2] = general cell-killing toxicity readout – plate reader, dry powder samples, cytotoxicity control for PAX8 inhibitor project, dose response (AID 743021); format: functional, cell-based
[3] = OVCAR8 cell viability loss – plate reader, dry powder samples, PAX8 project, dose response (AID 743197); format: functional, cell-based; details: OVCAR-8
Beta-lactamase [4] = molecular target: T1, Beta-lactamase (Pseudomonas aeruginosa, UniProt Q79MP6); test: inhibition of IMP-1 beta-lactamase activity – biochemical, epi-absorbance, selectivity assay for VIM-2 inhibitor project, dose response (AID 1920)
T1 sequence (Q79MP6 whole entry): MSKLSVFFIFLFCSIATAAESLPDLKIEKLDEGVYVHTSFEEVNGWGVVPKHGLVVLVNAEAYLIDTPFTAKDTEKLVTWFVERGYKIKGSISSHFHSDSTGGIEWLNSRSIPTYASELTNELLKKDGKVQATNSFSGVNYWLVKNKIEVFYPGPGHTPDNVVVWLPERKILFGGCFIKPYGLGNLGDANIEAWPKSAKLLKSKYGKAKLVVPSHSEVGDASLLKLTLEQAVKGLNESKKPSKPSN

Beta-lactamase [5] = molecular target: Beta-lactamase (Salmonella choleraesuis (strain SC-B67), UniProt Q5J463); test: Epi-absorbance-based counterscreen for selective VIM-2 inhibitors: dose response biochemical high throughput screening assay to identify inhibitors of TEM-1 serine-beta-lactamase.
Beta-lactamase (Salmonella choleraesuis (strain SC-B67), UniProt Q5J463), sequence (Q5J463 whole entry): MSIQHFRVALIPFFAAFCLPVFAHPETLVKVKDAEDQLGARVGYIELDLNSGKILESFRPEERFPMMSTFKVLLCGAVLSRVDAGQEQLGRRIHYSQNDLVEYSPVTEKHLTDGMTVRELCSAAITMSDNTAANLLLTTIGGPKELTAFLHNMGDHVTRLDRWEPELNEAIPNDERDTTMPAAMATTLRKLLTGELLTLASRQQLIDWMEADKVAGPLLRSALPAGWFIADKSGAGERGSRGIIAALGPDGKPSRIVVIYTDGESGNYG

Beta-lactamase [6] = molecular target: T1, Beta-lactamase; test: […] counterscreen for selective VIM-2 inhibitors: dose response biochemical high throughput screening assay to identify inhibitors of IMP-1 metallo-beta-lactamase.
Leucine aminopeptidase = molecular target: T2, Leucine aminopeptidase (Plasmodium falciparum 3D7, UniProt Q8IL11); test: P. falciparum M17LAP inhibitors, primary screen, biochemical, fluorogenic H-Leu-NHMec substrate, 1536-well (AID 1619); format: functional
T2 sequence (Q8IL11 whole entry): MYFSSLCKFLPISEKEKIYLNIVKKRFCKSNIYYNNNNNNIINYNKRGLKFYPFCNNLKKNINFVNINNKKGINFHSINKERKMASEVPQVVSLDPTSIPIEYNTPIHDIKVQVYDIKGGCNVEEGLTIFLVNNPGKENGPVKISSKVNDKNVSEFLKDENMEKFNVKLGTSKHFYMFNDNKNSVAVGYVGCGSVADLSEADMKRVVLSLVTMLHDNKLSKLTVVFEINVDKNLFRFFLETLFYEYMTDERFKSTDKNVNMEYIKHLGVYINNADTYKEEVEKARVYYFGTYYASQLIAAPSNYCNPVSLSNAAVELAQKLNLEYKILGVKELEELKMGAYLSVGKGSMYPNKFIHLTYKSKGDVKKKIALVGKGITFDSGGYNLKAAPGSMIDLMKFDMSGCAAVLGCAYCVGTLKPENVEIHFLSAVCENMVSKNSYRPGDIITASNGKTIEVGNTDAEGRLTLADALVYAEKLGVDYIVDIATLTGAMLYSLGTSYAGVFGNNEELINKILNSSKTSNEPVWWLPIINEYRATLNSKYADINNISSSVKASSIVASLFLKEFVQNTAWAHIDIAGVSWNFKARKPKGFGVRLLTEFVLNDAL

cells = format: functional, cell-based
[7] = molecular target: T3, Probable nicotinate-nucleotide adenylyltransferase (Staphylococcus aureus (strain N315), UniProt P65502); format: functional, Staphylococcus aureus subsp. aureus N315;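 for IC50 Mean: confirmatory dose-response retesting of NadD inhibitor hits first found in an ultra-high-throughput screen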
T3 sequence (P65502 whole entry): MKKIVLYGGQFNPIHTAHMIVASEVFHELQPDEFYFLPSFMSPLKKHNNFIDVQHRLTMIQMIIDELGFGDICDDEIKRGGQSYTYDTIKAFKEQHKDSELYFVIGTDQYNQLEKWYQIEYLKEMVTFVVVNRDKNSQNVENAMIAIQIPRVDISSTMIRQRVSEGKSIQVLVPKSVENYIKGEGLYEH

[8] = molecular target: T3, Probable nicotinate-nucleotide adenylyltransferase; format: functional, Staphylococcus aureus subsp. aureus N315; details: read-out: IC50_Mean
Mu-type opioid receptor = Mu-type opioid receptor (Homo sapiens, UniProt P35372); format: functional, cell-based;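 note: U2OS cells with beta-arrestin recruitment to OPRM1 by beta-gal complementation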
Mu-type opioid receptor, sequence (P35372 whole entry): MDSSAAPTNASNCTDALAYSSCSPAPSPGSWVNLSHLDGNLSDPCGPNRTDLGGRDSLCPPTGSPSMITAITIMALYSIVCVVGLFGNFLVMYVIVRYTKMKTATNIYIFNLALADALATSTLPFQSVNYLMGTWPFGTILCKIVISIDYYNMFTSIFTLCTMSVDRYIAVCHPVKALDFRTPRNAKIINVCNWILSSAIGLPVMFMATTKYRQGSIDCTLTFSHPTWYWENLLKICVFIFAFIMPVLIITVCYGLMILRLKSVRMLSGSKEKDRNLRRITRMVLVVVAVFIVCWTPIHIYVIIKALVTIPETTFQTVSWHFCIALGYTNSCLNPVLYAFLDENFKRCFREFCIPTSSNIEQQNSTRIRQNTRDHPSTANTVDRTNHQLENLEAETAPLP

[9] = molecular target: 5-hydroxytryptamine receptor 2A (Mus musculus, UniProt P35363); format: functional, cell-based;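 note: CHO-K1 cells with tagged receptor and beta-arrestin; agonist potency measured as compound-induced activation of the receptor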
5-hydroxytryptamine receptor 2A, sequence (P35363 whole entry): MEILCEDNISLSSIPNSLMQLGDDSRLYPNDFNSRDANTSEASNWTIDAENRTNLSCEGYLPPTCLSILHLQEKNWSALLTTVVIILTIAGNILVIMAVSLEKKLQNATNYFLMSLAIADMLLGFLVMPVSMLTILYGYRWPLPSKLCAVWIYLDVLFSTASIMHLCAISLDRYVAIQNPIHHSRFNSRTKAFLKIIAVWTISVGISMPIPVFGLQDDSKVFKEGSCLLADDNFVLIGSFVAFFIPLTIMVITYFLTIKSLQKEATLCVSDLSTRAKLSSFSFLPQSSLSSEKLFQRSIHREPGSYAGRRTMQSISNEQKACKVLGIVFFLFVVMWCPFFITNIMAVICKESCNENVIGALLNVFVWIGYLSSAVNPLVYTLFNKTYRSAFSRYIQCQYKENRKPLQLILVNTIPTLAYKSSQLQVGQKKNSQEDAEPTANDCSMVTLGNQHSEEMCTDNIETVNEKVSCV

A549 = test: viability loss in A549 cells – cell-based, plate reader, cherry-pick samples, cytotoxicity control, dose response (AID 687028); format: functional; details: Homo sapiens
[10] = viability loss in LCL cells – cell-based, plate reader, dry powder, set 2, cytotoxicity control, dose response (AID 624367); format: functional
[11] = general mammalian cell viability loss – activator set, cherry-pick, cytotoxicity control for miR-122 modulator project, dose response (AID 720690); format: functional, cell-based;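 note: HEK293T human cells scored for general mammalian cytotoxicity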
[12] = general mammalian cell viability loss – inhibitor set, cherry-pick, set 2, cytotoxicity control for miR-122 modulator project, dose response (AID 720697); format: functional, cell-based
[13] = molecular target: T4, Small ubiquitin-related modifier 1 (Homo sapiens, UniProt P63165); test: SUMO1 protein interaction blockers, potency – biochemical, fluorescence polarization, uHTS hits, dose response (AID 624382); format: functional; details: read-out: IC50_Mean
T4 sequence (P63165 whole entry): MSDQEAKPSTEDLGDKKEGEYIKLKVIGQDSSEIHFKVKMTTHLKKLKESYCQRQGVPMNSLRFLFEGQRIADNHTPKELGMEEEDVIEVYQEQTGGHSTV

Albumin = Albumin (Bos taurus, UniProt P02769); test: Counterscreen for inhibitors of T-cell receptor (TCR)-CD3 interaction: Fluorescence-based biochemical high throughput dose response assay to identify inhibitors of T-cell receptor (TCR)-CD3 interaction using a TAMRA-labeled BSA probe.; format: functional
Albumin, sequence (P02769 whole entry): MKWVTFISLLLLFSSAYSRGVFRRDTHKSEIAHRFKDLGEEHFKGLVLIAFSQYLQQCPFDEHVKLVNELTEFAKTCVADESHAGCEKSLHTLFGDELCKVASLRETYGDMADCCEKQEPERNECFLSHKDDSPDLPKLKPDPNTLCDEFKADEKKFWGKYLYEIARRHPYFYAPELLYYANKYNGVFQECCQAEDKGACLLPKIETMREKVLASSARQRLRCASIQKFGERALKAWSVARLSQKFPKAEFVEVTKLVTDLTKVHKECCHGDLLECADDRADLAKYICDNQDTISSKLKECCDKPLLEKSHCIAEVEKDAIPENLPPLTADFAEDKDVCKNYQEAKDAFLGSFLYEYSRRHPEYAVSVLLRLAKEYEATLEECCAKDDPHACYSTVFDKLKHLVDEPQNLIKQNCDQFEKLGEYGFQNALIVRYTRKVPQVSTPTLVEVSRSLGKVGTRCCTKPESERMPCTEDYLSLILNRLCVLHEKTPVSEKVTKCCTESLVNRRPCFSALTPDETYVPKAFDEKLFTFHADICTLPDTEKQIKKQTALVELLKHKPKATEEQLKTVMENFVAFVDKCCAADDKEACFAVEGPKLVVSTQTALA

[14] = molecular target: T4, Small ubiquitin-related modifier 1; test: SUMO1 protein-protein binding blockers, potency – biochemical, FRET, dose response (AID 624383); format: functional; details: read-out: IC50_Mean
[15] = molecular target: Dual specificity protein phosphatase 3 (Homo sapiens, UniProt P51452); test: VHR phosphatase inhibition, dose response, selectivity assay for STEP inhibitor project, biochemical (AID 602374); format: functional; details: read-out: IC50_Mean
Dual specificity protein phosphatase 3, sequence (P51452 whole entry): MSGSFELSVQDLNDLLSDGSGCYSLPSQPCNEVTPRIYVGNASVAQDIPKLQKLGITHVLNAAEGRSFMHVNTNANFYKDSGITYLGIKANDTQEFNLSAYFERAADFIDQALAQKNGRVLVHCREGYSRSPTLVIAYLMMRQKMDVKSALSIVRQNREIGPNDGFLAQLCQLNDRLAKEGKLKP

[16] = molecular target: Tyrosine-protein phosphatase non-receptor type 11 (Homo sapiens, UniProt Q06124); test: PTPN11 enzyme inhibitors – biochemical, selectivity assay for STEP inhibitor project, dose response (AID 602367); format: functional; details: read-out: IC50_Mean
Tyrosine-protein phosphatase non-receptor type 11, sequence (Q06124 whole entry): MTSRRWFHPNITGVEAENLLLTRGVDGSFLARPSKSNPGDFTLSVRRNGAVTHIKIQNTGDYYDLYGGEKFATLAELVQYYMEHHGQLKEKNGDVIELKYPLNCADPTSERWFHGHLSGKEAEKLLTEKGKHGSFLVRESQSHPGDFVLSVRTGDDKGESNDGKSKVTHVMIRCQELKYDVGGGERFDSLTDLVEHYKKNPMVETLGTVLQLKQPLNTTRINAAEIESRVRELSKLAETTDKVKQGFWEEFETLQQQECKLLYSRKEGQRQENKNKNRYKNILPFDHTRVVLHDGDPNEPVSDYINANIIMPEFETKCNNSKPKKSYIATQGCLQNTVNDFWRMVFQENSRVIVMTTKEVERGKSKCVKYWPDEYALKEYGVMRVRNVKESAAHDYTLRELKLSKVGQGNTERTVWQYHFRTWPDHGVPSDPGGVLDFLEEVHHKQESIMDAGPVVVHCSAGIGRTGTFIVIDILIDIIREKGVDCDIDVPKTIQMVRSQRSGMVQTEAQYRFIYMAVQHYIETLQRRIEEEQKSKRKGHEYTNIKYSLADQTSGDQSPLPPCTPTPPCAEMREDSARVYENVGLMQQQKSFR

[17] = molecular target: Tyrosine-protein phosphatase non-receptor type 5 (Homo sapiens, UniProt P54829); test: PTPN5 enzyme inhibition – biochemical, fluorescence intensity, uHTS hits, confirmation (AID 602372); format: functional; details: read-out: IC50_Mean
[18] = molecular target: DNA (cytosine-5)-methyltransferase 1 (Homo sapiens, UniProt P26358); test: inhibition of DNA methylation by DNMT1 – biochemical, fluorescent molecular beacon, confirmation (AID 602386); format: functional
DNA (cytosine-5)-methyltransferase 1, sequence (P26358 whole entry): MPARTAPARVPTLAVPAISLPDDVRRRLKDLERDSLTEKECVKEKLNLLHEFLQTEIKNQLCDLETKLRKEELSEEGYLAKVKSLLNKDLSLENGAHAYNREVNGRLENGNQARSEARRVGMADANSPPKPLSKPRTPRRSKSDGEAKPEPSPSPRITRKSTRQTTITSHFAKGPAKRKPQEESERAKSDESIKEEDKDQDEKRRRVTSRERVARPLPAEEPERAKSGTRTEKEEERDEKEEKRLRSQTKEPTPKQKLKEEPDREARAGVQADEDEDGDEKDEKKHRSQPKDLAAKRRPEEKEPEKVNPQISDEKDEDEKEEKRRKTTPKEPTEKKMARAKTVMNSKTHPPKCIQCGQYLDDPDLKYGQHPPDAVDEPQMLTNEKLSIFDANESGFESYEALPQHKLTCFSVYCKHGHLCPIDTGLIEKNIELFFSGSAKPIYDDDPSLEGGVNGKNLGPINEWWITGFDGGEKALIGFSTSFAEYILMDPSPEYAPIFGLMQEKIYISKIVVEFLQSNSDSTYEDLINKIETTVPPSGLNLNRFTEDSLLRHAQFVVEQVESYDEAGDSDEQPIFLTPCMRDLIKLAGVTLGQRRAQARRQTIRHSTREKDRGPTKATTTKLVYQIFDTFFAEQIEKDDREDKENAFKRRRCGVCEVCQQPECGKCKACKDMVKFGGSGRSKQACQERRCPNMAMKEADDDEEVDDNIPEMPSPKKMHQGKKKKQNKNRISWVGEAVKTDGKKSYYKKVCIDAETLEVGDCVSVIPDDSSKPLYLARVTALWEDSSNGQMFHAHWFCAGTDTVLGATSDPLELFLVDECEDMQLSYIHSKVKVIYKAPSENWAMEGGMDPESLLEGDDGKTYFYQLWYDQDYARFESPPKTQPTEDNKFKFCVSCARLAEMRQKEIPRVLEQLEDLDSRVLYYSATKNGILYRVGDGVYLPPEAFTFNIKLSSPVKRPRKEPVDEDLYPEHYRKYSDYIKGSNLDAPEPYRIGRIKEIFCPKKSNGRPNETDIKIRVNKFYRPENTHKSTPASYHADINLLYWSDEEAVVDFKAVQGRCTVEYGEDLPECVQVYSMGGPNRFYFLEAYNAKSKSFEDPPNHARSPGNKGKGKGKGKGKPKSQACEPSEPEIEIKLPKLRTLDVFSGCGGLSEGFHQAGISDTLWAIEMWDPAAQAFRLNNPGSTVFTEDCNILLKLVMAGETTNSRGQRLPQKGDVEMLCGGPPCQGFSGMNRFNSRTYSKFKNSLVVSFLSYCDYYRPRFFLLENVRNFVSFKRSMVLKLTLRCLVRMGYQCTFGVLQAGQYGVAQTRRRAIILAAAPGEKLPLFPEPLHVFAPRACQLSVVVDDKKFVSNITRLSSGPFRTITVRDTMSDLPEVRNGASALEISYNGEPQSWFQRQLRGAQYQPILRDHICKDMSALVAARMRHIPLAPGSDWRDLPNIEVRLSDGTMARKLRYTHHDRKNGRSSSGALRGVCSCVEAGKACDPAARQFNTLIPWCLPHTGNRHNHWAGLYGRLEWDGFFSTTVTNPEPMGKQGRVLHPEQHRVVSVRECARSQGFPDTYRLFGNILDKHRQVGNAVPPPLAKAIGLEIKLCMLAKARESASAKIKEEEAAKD

[19] = rescue of ΔF508 CFTR function, airway epithelium – human bronchial epithelial cells, plate reader, cherry-pick, two tests, dose response (AID 743267); format: functional, cell-based
[20] = fluconazole-exposed Candida albicans growth modulators – fluorescence, retest, confirmation (AID 2467); format: functional, cell-based
[21] = Trypanosoma cruzi growth suppression in host cells – NIH3T3 host cells, beta-gal luminescence, confirmation (AID 2044); format: functional, cell-based;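 note: intracellular parasites grown in NIH/3T3 mouse fibroblasts as host cells; luminescent beta-galactosidase reporter signal from transgenic T. cruzi replicating inside host cells; inhibitors lower the luminescence signal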
Cryptococcus neoformans [22] = test: PubChem AID 686997; format: functional, organism-based
[23] = NIH-3T3 fibroblast cytotoxicity, dose response, cytotoxicity control, cell-based, fluorescence, Alamar Blue, secondary assay (AID 2327); format: functional;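 note: NIH-3T3 mouse fibroblasts cultured with fluconazole at 8 µg/mL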
Cryptococcus neoformans [24] = test: Cryptococcus growth inhibition by alamar blue – cell lysis, cherry-picks, replicate tests, mechanism study for C. neoformans antifungal project, dose response (AID 686999); format: functional, organism-based
HeLa = test: viability loss in HeLa cells – cell-based, ATP luminescence, cherry-pick samples, cytotoxicity control, dose response (AID 687004); format: functional; details: Homo sapiens
[25] = NIH3T3 cell viability loss – ATP luminescence, mouse fibroblasts, counter-screen, dose response (AID 2010); format: functional, cell-based;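 note: cells exposed to compound for about 90 hours before reading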

## C[C@@H]1CCCCO[C@@H](CN(C)C(=O)c2ccccc2)[C@@H](C)CN([C@@H](C)CO)C(=O)c2cc(NC(=O)Nc3ccc(C(F)(F)F)cc3)ccc2O1
[1]
  AC50: 7.75 µM (active)
Paired box protein Pax-8
  AC50: 8.77 µM (active)
[2]
  AC50: 44.3 µM (active)
[3]
  AC50: > 70 µM (inactive)

## O=C(O)c1ccccc1C(=O)c1cccc2ccccc12
Beta-lactamase [4]
  IC50: > 59.6 µM (inactive)
Beta-lactamase [5]
  IC50: > 59.6 µM (inactive)
Beta-lactamase [6]
  IC50: > 59.6 µM (inactive)

## CCc1nnc(NS(=O)(=O)c2ccc(/N=C/c3c(C)nn(-c4ccc(C)c(C)c4)c3O)cc2)s1
Leucine aminopeptidase
  IC50: 14.4 µM (active)
cells
  IC50: 70 µM (inactive)
[7]
  IC50: 4.55 µM (active)
[8]
  IC50: 16.5 µM (active)

## OC(COc1ccc2cc(Br)ccc2c1)CN1CCN(c2ccccn2)CC1 (configuration not stated)
Mu-type opioid receptor
  EC50: 92.5 µM (inactive)
[9]
  EC50: 0.903 µM (active)

## Cc1ccc2ccc(C(Nc3ccccc3)c3ccccc3)c(O)c2n1 (configuration not stated)
A549
  AC50: 17.9 µM (active)

## O=C(Nc1ccc(C(F)(F)F)cc1)Nc1ccc2c(c1)[C@@H]1C[C@H](CC(=O)N3CCc4ccccc4C3)O[C@@H](CO)[C@@H]1O2
[10]
  AbsAC35: 85.24 µM

## C[C@@H]1CN([C@@H](C)CO)S(=O)(=O)c2ccc(-c3cncnc3)cc2O[C@@H]1CN(C)Cc1ccc(Oc2ccccc2)cc1
[11]
  AC50: 24.9 µM (active)
[12]
  AC50: 22.7 µM (active)

## O=C(N/N=C/c1ccoc1)c1cc(O)cc(O)c1
[13]
  IC50: > 66.6 µM (inactive)
Albumin
  IC50: > 94 µM (inactive)
[14]
  IC50: 12.4 µM (active)
[15]
  IC50: 1.55 µM (active)
[16]
  IC50: 0.952 µM (active)
[17]
  IC50: 33.9 µM (inactive)
[18]
  IC50: 7.09 µM (active)

## CCOC(=O)c1[nH]c(C)c(C(=O)C2=C(O)C(=O)N(CCCN3CCOCC3)C2c2cccs2)c1C (configuration not stated)
[19]
  AC50: 19.4 µM (active)

## NC(=S)N/N=C/c1ccc(-c2cc(Cl)ccc2Cl)o1
[20]
  EC50: 4.47 µM (active)
[21]
  EC50: 0.627 µM (active)
Cryptococcus neoformans [22]
  AC50: 12.2 µM (active)
[23]
  EC50: 15.4 µM (active)
Cryptococcus neoformans [24]
  AC50: 18.1 µM (active)
HeLa
  AC50: 17.6 µM (active)
[25]
  EC50: > 60 µM (not active)
